The values that follow come from patent publication US20220096650A1 (Glaxosmithkline Intellectual Property Development Limited, priority 2019, published 2022).

One test has as its system NCI-H929. Put plainly: Immunogenic cell death markers (ATP, HMGB1, CRT) after 48 hour treatment. Type of test: cell-based, human. The text has this: The process of immunogenic cell death can induce the production of danger molecules that lead to the activation of dendritic cells (see FIG. 1A—ICD is a special type of apoptosis often associated with the cellular release of ATP and HMGB1, and exposure of CRT at the cellular membrane. ICD induces an immune response through engagement of the antigen presentation process by dendritic cells (DCs)). […] Anti-BCMA-MMAF induced ATP release, HMGB1 release and CRT exposure only in NCI-H929, a BCMA positive MM cell line). To investigate the effect of NCI-H929 cell killing by BCMA ADC on the activation of dendritic cells, co-culture experiments were carried out with BCMA ADC treated NCI-H929 cells and immature dendritic cells (iDCs) differentiated from human monocytes in vitro with GM-CSF/IL-4 treatment. A number of dendritic cell maturation markers as well as IL-10 and IL-12p70, two major cytokines secreted by dendritic cells upon activation, were monitored in this process to assess the effect of BCMA ADC induced cell death on dendritic cell activation.

Test [1] has as its system CD4 and CD8 T cells in PBMC. Put plainly: PBMC T cell activation assay (anti-CD3/anti-CD28 stimulation), activation markers by flow cytometry. Particulars: 24 and 72 hrs, 30, 3 and 0.3 μg/mL. It counts as cell-based, human. The text has this:
T cells can be activated through the engagement of the T cell receptor (TCR) and co-stimulatory molecules expressed on the cell surface. […] Furthermore, upon activation, T cells produce cytokines such as IFNγ and IL-4. The effect of BCMA ADC on IFNγ and IL-4 productions in stimulated T cells was also studied. These experiments can provide data on the effect of BCMA ADC on T cells activation and function. In addition, proliferation of human CD4+ and CD8+ T cells upon stimulation in the presence of BCMA ADC was also evaluated. Human blood was obtained from the blood donor procurement program at GlaxoSmithKline. Peripheral blood mononuclear cells (PBMCs) were isolated from human whole blood by Ficoll density gradient centrifugation (GE Healthcare). Anti-human CD3 antibody (eBioscience, catalog #16-0037-85, clone OKT3) diluted with coating buffer (Biolegend, catalog #421701) was coated on 96 well flat-bottom plate overnight.
In this study, BCMA ADC treatment and PBMC activation occurred concurrently and the effects were monitored at 24 and 72 hrs. […] Immunofluorescence analysis was performed on a FACS CANTO II flow cytometer (BD Biosciences) and analyzed with DIVA software (BD Biosciences). Flow cytometry was used to monitor the percentage of CD4 or CD8 cells that express a given marker, and the mean fluorescence intensity (MFI) of this maker in CD4 or CD8 cells. […]
In general terms: In flow cytometry, cells or beads pass a laser one at a time.

As for GSK2857916, in the test on NCI-H929 (cellular supernatant, ELISA, only in NCI-H929), the HMGB1 release entry is reported as “induced”. The ATP release entry in the test on NCI-H929 (cellular supernatant, luminescence, only in NCI-H929, a BCMA positive MM cell line) is given as “induced”. Moreover, the CRT exposure entry in the test with NCI-H929 (flow cytometry, only in NCI-H929) is “induced”. In addition, the “effect on anti-CD3/anti-CD28 stimulated CD4 and CD8 T cell activation” value in test [1] is “minimal effect”.
